# Publication PMC6704710, “Preclinical evaluation of 3D185, a novel potent inhibitor of FGFR1/2/3 and CSF-1R, in FGFR-dependent and macrophage-dominant cancer models” (Journal of Experimental & Clinical Cancer Research : CR, 2019)
# Legend:
# Assay in all cases: Eurofins kinase panel
# Type in all cases: biochemical
# HIPK4(h) = biological target: T1, HIPK4(h) (Homo sapiens, UniProt Q8NE63); conditions: read-out: Inhibition rate (%)
# T1 construct: purchased Eurofins (KinaseProfiler)
# T1 sequence (Q8NE63 1-616): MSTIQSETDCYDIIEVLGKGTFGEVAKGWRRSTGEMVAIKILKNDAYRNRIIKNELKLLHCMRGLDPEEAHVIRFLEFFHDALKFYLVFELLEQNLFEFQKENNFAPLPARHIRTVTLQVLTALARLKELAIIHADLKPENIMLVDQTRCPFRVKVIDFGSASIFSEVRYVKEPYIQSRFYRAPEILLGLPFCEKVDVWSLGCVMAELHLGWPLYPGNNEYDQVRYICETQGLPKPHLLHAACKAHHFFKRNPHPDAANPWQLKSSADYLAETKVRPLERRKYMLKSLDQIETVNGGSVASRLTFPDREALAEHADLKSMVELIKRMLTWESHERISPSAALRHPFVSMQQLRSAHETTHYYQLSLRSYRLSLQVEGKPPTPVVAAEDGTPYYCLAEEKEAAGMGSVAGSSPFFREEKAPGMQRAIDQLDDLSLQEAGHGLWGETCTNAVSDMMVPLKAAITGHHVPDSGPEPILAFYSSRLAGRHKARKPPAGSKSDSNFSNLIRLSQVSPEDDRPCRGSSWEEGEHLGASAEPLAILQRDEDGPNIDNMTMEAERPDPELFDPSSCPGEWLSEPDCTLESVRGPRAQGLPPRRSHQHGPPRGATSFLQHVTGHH
# PIP5K1γ(h) = biological target: T2, PIP5K1γ(h) (Homo sapiens, UniProt O60331); conditions: read-out: Inhibition rate (%)
# T2 construct: purchased Eurofins (KinaseProfiler)
# CK2α1(h) = biological target: T3, CK2α1(h) (Homo sapiens, UniProt P68400); conditions: read-out: Inhibition rate (%)
# T3 construct: purchased Eurofins (KinaseProfiler)
# SLK(h) = biological target: T4, SLK(h) (Homo sapiens, UniProt Q9H2G2); conditions: read-out: Inhibition rate (%)
# T4 construct: purchased Eurofins (KinaseProfiler)
# Fms(h) = Fms(h) (Homo sapiens, UniProt P07333)
# Rsk4(h) = biological target: T5, Rsk4(h) (Homo sapiens, UniProt Q9UK32); conditions: read-out: Inhibition rate (%)
# T5 construct: purchased Eurofins (KinaseProfiler)
# TSSK3(h) = biological target: T6, TSSK3(h) (Homo sapiens, UniProt Q96PN8); conditions: read-out: Inhibition rate (%)
# T6 construct: purchased Eurofins (KinaseProfiler)
# T6 sequence (Q96PN8 1-268): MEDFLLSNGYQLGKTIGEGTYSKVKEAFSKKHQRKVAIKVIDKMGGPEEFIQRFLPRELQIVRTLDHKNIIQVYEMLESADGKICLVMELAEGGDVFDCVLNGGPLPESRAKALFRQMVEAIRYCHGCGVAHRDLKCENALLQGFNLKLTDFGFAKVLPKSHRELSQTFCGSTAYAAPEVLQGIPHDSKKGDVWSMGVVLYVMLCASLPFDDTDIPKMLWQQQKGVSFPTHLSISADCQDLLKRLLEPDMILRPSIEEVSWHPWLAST
# MOK(h) = biological target: T7, MOK(h) (Homo sapiens, UniProt Q9UQ07); conditions: read-out: Inhibition rate (%)
# T7 construct: purchased Eurofins (KinaseProfiler)
# T7 sequence (Q9UQ07 1-419): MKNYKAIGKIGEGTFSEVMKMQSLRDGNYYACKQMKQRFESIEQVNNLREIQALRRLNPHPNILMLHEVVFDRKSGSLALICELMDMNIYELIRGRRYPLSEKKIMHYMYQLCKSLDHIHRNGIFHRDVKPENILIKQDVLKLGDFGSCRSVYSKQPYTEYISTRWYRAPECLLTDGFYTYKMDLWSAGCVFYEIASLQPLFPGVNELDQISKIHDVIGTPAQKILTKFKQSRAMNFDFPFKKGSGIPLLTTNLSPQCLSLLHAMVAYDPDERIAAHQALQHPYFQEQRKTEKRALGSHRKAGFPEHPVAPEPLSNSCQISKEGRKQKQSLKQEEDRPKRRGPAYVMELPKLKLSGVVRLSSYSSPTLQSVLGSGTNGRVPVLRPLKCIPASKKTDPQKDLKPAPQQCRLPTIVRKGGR
# Rsk2(h) = biological target: T8, Rsk2(h) (Homo sapiens, UniProt P51812); conditions: read-out: Inhibition rate (%)
# T8 construct: purchased Eurofins (KinaseProfiler)
# DMPK(h) = biological target: T9, DMPK(h) (Homo sapiens, UniProt Q09013); conditions: read-out: Inhibition rate (%)
# T9 construct: purchased Eurofins (KinaseProfiler)
# T9 sequence (Q09013 1-629): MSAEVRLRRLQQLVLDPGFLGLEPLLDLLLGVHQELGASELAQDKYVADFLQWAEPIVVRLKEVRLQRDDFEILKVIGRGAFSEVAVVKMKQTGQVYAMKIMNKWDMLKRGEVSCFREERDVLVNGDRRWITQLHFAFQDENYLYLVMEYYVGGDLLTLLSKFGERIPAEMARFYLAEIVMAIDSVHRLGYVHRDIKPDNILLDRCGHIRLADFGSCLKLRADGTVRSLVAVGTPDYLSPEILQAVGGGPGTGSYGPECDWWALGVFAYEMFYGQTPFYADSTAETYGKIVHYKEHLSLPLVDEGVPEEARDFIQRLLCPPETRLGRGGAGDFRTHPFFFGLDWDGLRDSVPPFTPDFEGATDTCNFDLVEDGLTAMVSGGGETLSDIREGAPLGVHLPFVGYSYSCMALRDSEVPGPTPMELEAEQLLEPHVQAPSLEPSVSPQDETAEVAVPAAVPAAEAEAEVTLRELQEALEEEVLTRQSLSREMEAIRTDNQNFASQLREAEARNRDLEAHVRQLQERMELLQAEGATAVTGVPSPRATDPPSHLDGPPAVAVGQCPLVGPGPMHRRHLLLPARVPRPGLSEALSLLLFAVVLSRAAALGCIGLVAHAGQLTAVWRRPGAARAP
# T3 sequence (P68400 whole entry): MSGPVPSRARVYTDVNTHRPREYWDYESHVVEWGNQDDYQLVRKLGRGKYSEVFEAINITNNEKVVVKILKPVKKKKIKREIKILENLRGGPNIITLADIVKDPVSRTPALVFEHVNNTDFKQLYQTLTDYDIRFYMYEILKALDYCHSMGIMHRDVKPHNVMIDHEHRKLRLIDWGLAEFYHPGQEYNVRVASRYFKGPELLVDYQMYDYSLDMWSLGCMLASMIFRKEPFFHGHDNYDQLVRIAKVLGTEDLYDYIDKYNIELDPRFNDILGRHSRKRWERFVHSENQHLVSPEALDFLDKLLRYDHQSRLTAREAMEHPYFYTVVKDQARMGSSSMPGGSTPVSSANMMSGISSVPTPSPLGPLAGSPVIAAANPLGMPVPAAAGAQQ
# T2 sequence (O60331 whole entry): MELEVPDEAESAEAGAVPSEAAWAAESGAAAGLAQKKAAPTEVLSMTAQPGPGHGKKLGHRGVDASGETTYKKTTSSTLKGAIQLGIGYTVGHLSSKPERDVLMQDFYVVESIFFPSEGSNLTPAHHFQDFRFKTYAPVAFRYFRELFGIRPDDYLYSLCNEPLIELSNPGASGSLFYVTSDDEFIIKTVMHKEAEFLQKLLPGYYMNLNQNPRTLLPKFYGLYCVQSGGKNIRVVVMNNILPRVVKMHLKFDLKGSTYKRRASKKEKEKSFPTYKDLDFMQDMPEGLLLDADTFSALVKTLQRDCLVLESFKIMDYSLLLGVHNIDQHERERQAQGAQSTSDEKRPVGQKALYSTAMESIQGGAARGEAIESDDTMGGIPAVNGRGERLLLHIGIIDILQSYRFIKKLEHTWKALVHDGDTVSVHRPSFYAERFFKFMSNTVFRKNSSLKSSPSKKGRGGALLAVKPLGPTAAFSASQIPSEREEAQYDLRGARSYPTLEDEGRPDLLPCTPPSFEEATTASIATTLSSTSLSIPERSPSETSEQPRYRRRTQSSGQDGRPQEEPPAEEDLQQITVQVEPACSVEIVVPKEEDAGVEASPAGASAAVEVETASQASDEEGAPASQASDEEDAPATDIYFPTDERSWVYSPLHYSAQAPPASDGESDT
# T4 sequence (Q9H2G2 whole entry): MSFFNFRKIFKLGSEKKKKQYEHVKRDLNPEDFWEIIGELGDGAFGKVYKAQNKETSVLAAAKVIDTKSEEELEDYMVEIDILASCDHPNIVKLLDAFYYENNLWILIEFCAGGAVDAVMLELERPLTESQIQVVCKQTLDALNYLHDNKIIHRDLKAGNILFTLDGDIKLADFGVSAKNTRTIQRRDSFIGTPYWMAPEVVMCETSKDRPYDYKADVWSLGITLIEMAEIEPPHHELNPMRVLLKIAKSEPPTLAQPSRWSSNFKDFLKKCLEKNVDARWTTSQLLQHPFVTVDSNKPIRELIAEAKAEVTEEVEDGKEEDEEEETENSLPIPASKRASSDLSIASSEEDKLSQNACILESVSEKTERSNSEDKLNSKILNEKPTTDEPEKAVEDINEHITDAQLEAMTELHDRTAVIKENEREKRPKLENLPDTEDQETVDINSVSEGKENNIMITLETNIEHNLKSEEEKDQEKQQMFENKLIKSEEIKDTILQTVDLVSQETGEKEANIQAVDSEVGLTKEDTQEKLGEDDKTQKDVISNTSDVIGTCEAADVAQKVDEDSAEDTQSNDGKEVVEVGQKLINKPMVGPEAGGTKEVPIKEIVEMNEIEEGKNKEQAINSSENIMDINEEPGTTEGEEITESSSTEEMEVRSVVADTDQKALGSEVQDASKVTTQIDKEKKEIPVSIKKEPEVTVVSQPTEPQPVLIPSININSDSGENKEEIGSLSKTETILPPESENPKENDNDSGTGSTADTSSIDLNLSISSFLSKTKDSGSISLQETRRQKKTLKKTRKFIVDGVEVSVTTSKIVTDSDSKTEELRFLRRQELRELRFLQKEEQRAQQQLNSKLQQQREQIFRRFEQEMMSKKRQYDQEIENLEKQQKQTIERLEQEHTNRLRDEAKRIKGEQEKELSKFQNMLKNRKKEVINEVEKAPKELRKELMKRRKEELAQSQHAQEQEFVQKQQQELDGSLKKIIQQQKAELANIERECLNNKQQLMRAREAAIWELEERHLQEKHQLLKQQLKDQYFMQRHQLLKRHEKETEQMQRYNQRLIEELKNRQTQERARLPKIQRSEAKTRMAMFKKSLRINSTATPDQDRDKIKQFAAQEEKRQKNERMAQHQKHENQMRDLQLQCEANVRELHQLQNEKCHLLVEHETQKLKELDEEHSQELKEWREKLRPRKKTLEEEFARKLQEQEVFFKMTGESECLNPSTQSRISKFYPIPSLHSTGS
# Chain of Fms(h) (P07333 20-972): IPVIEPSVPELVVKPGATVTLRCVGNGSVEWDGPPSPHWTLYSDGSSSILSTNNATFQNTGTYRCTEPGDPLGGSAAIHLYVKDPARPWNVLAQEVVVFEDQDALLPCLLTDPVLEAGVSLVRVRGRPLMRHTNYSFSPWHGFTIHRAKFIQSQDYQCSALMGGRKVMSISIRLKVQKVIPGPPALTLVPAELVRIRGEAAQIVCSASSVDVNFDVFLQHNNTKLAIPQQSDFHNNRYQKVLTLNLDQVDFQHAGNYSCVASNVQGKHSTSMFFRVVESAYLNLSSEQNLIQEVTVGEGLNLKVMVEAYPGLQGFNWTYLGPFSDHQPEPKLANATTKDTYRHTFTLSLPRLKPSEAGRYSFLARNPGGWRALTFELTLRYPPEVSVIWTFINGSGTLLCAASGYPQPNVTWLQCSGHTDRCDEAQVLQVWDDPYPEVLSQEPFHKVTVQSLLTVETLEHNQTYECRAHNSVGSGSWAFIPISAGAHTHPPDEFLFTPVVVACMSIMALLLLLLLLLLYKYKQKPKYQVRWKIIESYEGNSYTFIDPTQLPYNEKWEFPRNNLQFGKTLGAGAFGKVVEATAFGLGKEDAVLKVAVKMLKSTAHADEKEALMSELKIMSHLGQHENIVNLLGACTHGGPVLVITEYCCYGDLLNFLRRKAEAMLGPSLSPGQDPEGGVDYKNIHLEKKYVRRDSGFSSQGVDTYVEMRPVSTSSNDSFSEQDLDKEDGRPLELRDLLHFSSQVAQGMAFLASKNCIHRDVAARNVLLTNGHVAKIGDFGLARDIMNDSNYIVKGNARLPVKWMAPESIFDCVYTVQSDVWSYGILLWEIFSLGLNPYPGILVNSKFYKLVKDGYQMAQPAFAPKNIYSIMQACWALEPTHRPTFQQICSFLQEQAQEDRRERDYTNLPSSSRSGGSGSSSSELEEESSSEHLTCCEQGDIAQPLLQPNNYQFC
# T5 sequence (Q9UK32 whole entry): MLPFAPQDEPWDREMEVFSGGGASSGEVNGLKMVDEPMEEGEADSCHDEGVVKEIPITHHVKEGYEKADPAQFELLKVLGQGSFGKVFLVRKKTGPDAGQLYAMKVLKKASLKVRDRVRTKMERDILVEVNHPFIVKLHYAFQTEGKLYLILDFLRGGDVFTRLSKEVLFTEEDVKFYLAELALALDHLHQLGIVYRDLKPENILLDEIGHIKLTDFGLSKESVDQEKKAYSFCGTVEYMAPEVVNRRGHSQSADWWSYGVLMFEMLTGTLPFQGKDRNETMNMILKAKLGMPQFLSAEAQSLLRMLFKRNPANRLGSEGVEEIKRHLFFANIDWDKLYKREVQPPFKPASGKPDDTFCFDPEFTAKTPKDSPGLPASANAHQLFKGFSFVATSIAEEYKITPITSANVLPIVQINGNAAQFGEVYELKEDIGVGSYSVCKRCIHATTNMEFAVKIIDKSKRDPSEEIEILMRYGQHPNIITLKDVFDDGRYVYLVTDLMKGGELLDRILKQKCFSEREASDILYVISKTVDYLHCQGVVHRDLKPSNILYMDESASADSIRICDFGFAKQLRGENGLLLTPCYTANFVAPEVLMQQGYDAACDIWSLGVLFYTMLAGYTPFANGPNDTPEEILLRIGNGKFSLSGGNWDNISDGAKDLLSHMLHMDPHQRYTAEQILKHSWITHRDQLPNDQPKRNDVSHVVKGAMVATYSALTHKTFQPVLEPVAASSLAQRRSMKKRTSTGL
# T8 sequence (P51812 whole entry): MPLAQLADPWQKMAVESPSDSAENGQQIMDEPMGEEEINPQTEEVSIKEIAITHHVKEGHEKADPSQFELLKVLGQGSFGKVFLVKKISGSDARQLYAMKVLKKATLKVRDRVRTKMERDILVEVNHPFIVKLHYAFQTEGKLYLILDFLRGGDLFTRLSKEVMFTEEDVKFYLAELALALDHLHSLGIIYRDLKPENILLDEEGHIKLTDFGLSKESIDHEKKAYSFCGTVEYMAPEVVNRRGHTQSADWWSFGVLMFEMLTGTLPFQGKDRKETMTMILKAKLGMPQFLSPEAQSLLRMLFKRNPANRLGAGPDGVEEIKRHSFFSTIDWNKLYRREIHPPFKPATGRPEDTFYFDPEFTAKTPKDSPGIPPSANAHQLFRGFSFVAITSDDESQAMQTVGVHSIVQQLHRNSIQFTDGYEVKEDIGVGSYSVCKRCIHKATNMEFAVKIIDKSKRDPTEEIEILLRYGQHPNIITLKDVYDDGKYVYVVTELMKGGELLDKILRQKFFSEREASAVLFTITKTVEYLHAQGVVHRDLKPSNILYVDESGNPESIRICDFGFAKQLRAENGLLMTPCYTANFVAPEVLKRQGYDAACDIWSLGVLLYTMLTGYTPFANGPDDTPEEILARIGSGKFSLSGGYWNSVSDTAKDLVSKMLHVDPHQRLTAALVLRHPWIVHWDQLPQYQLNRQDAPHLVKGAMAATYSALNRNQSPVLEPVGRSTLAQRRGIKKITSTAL
smiles,measurement,setting,value
COc1cc(OC)c(Cl)c(-c2ccc3c(NC(=O)c4ccc(N5CCNC(C)(C)C5)cc4)n[nH]c3n2)c1Cl [3D185],inhibition at 0.01 µM,HIPK4(h); 10 nM,1%
same,inhibition at 0.1 µM,HIPK4(h); 100 nM,-17%
same,inhibition at 1 µM,HIPK4(h); 1000 nM,16%
same,inhibition at 0.01 µM,PIP5K1γ(h); 10 nM,6%
same,inhibition at 0.1 µM,PIP5K1γ(h); 100 nM,6%
same,inhibition at 1 µM,PIP5K1γ(h); 1000 nM,10%
same,inhibition at 0.01 µM,CK2α1(h); 10 nM,23%
same,inhibition at 0.1 µM,CK2α1(h); 100 nM,21%
same,inhibition at 1 µM,CK2α1(h); 1000 nM,10%
same,inhibition at 0.01 µM,SLK(h); 10 nM,10%
same,inhibition at 0.1 µM,SLK(h); 100 nM,34%
same,inhibition at 1 µM,SLK(h); 1000 nM,81%
same,IC50,"Fms(h); CSF-1R, estimated from 372-kinase panel",< 10 nM
same,inhibition at 0.01 µM,Fms(h); read-out: Inhibition rate (%),75%
same,inhibition at 0.1 µM,Fms(h); read-out: Inhibition rate (%),93%
same,inhibition at 1 µM,Fms(h); read-out: Inhibition rate (%),96%
same,inhibition at 0.01 µM,Rsk4(h); 10 nM,0%
same,inhibition at 0.1 µM,Rsk4(h); 100 nM,6%
same,inhibition at 1 µM,Rsk4(h); 1000 nM,19%
same,inhibition at 0.01 µM,TSSK3(h); 10 nM,14%
same,inhibition at 0.1 µM,TSSK3(h); 100 nM,5%
same,inhibition at 1 µM,TSSK3(h); 1000 nM,5%
same,inhibition at 0.01 µM,MOK(h); 10 nM,-7%
same,inhibition at 0.1 µM,MOK(h); 100 nM,6%
same,inhibition at 1 µM,MOK(h); 1000 nM,1%
same,inhibition at 0.01 µM,Rsk2(h); 10 nM,-19%
same,inhibition at 0.1 µM,Rsk2(h); 100 nM,0%
same,inhibition at 1 µM,Rsk2(h); 1000 nM,24%
same,inhibition at 0.01 µM,DMPK(h); 10 nM,2%
same,inhibition at 0.1 µM,DMPK(h); 100 nM,3%
same,inhibition at 1 µM,DMPK(h); 1000 nM,2%
